Experimental data taken from patent US12479804B2, “Herbicidal compounds” (SYNGENTA CROP PROTECTION AG, priority 2019, dated 2025).

Assays:
Assay in all cases: Glasshouse herbicidal test, pre- and post-emergence, percentage damage to the plant
Format in all cases: in vivo
Lolium perenne (LOLPE) = conditions: 250 g/h, evaluated after 13 days; for LOLPE POST percentage damage caused to the plant (five-point scale): post-emergence; for LOLPE PRE percentage damage caused to the plant (five-point scale): pre-emergence
Experimental: (§1) Seeds of a variety of test species are sown in standard soil in pots (Lolium perenne (LOLPE), Setaria faberi (SETFA), Alopecurus myosuroides (ALOMY), Echinochloa crus-galli (ECHCG), Avena fatua (AVEFA)). After cultivation for one day (pre-emergence) or after 8 days cultivation (post-emergence) under controlled conditions in a glasshouse (at 24/16° C., day/night; 14 hours light; 65% humidity), the plants are sprayed with an aqueous spray solution derived from the formulation of the technical active ingredient in acetone/water (50:50) solution containing 0.5% Tween 20 (polyoxyethelyene sorbitan monolaurate, CAS RN 9005-64-5). Compounds are applied at 250 g/h. The test plants are then grown in a glasshouse under controlled conditions in a glasshouse (at 24/16° C., day/night; 14 hours light; 65% humidity) and watered twice daily. After 13 days for pre and post-emergence, the test is evaluated for the percentage damage caused to the plant. The biological activities are shown in the following table on a five-point scale (5=80-100%; 4=60-79%; 3=40-59%; 2=20-39%; 1=0-19%).

[1] = system: Echinochloa crus-galli (ECHCG); conditions: 250 g/h, evaluated after 13 days; for ECHCG POST percentage damage caused to the plant (five-point scale): post-emergence; for ECHCG PRE percentage damage caused to the plant (five-point scale): pre-emergence
Experimental: as §1

Setaria faberi (SETFA) = conditions: 250 g/h, evaluated after 13 days; for SETFA POST percentage damage caused to the plant (five-point scale): post-emergence; for SETFA PRE percentage damage caused to the plant (five-point scale): pre-emergence
Experimental: as §1

Avena fatua (AVEFA) = conditions: 250 g/h, evaluated after 13 days; for AVEFA POST percentage damage caused to the plant (five-point scale): post-emergence; for AVEFA PRE percentage damage caused to the plant (five-point scale): pre-emergence
Experimental: as §1

[2] = system: Alopecurus myosuroides (ALOMY); conditions: 250 g/h, evaluated after 13 days; for ALOMY POST percentage damage caused to the plant (five-point scale): post-emergence; for ALOMY PRE percentage damage caused to the plant (five-point scale): pre-emergence
Experimental: as §1

| SMILES | LOLPE POST percentage damage caused to the plant (five-point scale) (Lolium perenne (LOLPE)) | LOLPE PRE percentage damage caused to the plant (five-point scale) (Lolium perenne (LOLPE)) | ECHCG POST percentage damage caused to the plant (five-point scale) [1] | ECHCG PRE percentage damage caused to the plant (five-point scale) [1] | SETFA POST percentage damage caused to the plant (five-point scale) (Setaria faberi (SETFA)) | SETFA PRE percentage damage caused to the plant (five-point scale) (Setaria faberi (SETFA)) | AVEFA POST percentage damage caused to the plant (five-point scale) (Avena fatua (AVEFA)) | AVEFA PRE percentage damage caused to the plant (five-point scale) (Avena fatua (AVEFA)) | ALOMY POST percentage damage caused to the plant (five-point scale) [2] | ALOMY PRE percentage damage caused to the plant (five-point scale) [2] |
| --- | --- | --- | --- | --- | --- | --- | --- | --- | --- | --- |
| CC#Cc1cc(C)c(C2C(=O)CC3(C=CN(C(=O)NC(C)(C)C)CC3)CC2=O)c(C)c1 (stereo not drawn) [Compound A53] | 5 (5=80-100%) | 5 (5=80-100%) | 5 (5=80-100%) | 5 (5=80-100%) | 5 (5=80-100%) | 5 (5=80-100%) | 4 (4=60-79%) | 2 (2=20-39%) | 5 (5=80-100%) | 5 (5=80-100%) |
| CC#Cc1cc(C)c(C2C(=O)CC3(C=CN(C(=O)NC(=O)C(C)(C)C)CC3)CC2=O)c(C)c1 (stereo not drawn) [Compound A54] | 5 (5=80-100%) | 5 (5=80-100%) | 5 (5=80-100%) | 5 (5=80-100%) | 5 (5=80-100%) | 5 (5=80-100%) | 5 (5=80-100%) | 5 (5=80-100%) | 5 (5=80-100%) | 5 (5=80-100%) |
| CC#Cc1cc(C)c(C2C(=O)CC3(C=CN(S(=O)(=O)CC)CC3)CC2=O)c(C)c1 (stereo not drawn) [Compound A55] | 5 (5=80-100%) | 5 (5=80-100%) | 5 (5=80-100%) | 5 (5=80-100%) | 5 (5=80-100%) | 5 (5=80-100%) | 5 (5=80-100%) | 5 (5=80-100%) | 5 (5=80-100%) | 5 (5=80-100%) |
| CC#Cc1cc(C)c(C2C(=O)CC3(C=CN(C(=O)C(F)F)CC3)CC2=O)c(C)c1 (stereo not drawn) [Compound A56] | 5 (5=80-100%) | 5 (5=80-100%) | 5 (5=80-100%) | 5 (5=80-100%) | 5 (5=80-100%) | 5 (5=80-100%) | 5 (5=80-100%) | 5 (5=80-100%) | 5 (5=80-100%) | 5 (5=80-100%) |
| CC#Cc1cc(C)c(C2C(=O)CC3(C=CN(C(=O)NC(=O)c4ccccn4)CC3)CC2=O)c(C)c1 (stereo not drawn) [Compound A57] | 5 (5=80-100%) | 5 (5=80-100%) | 5 (5=80-100%) | 5 (5=80-100%) | 5 (5=80-100%) | 5 (5=80-100%) | 5 (5=80-100%) | 4 (4=60-79%) | 5 (5=80-100%) | 5 (5=80-100%) |
| CC#Cc1cc(C)c(C2C(=O)CC3(CCN(C(C)=O)C(C)C3)CC2=O)c(C)c1 (stereo not drawn) [Compound A58] | 5 (5=80-100%) | 5 (5=80-100%) | 5 (5=80-100%) | 5 (5=80-100%) | 5 (5=80-100%) | 5 (5=80-100%) | 5 (5=80-100%) | 5 (5=80-100%) | 5 (5=80-100%) | 5 (5=80-100%) |
| CC#Cc1cc(C)c(C2C(=O)CC3(CCN(C(C)=O)CC3C)CC2=O)c(C)c1 (stereo not drawn) [Compound A59] | 5 (5=80-100%) | 5 (5=80-100%) | 5 (5=80-100%) | 5 (5=80-100%) | 5 (5=80-100%) | 5 (5=80-100%) | 5 (5=80-100%) | 5 (5=80-100%) | 5 (5=80-100%) | 5 (5=80-100%) |
| CC#Cc1cc(C)c(C2=C(OC(C)=O)CC3(CCCN(C(C)=O)CC3)CC2=O)c(C)c1 (stereo not drawn) [Compound P1] | 5 (5=80-100%) | 5 (5=80-100%) | 5 (5=80-100%) | 5 (5=80-100%) | 5 (5=80-100%) | 5 (5=80-100%) | 5 (5=80-100%) | 5 (5=80-100%) | 5 (5=80-100%) | 5 (5=80-100%) |
| CC#Cc1cc(C)c(C2=C(OC(C)=O)CC3(CCN(C(C)=O)C(=O)C3)CC2=O)c(C)c1 (stereo not drawn) [Compound P2] | 5 (5=80-100%) | 5 (5=80-100%) |  | 5 (5=80-100%) | 5 (5=80-100%) | 5 (5=80-100%) | 5 (5=80-100%) | 5 (5=80-100%) | 5 (5=80-100%) | 5 (5=80-100%) |
| CC#Cc1cc(C)c(C2=C(OC(=O)OC)CC3(CCN(C(C)=O)C3)CC2=O)c(C)c1 (stereo not drawn) [Compound P3] | 5 (5=80-100%) | 5 (5=80-100%) | 5 (5=80-100%) | 5 (5=80-100%) | 5 (5=80-100%) | 5 (5=80-100%) | 5 (5=80-100%) | 4 (4=60-79%) | 5 (5=80-100%) | 5 (5=80-100%) |
